Source: patent US20240115470A1, “METHYL-FLUORO-HYDROXYBENZOATES IN CONSUMER PRODUCTS” (GIVAUDAN SA, priority 2020, published 2024)

Assays:
[1] = Assessment of the odor profile on smelling strips by panellists, compared to methyl salicylate; details: for Odor description: compound @10 wt % in polyethylene glycol, freshly dipped on smelling strips, compared to methyl salicylate; for odor profile compared to methyl salicylate (summary statement) / sweet aspect of odor profile: general statement in description
Method: A 10 wt % solution of the purified samples of Example 1 were prepared (compound @10 wt % in polyethylene glycol). The odor profile was assessed freshly dipped on smelling strips.
Panellists have been asked to provide an odor description as compared to methyl salicylate.

[2] = GC-odor threshold concentration (gas chromatograph with sniff port, panel of trained evaluators); details: for odor threshold concentration compared to methyl salicylate and other methyl-fluoro-hydroxybenzoates (in words): general statement in description; for odor threshold concentration (relative): relative values, identical conditions, GC sniff port
Method: Definition: The odour threshold concentration is defined as the lowest concentration of the vapour of an odorant material in the air which can be detected by smell and can be measured by standard methods known in the art.
According to standard procedures known to the person skilled in the art, threshold concentrations for volatile perfumery compounds are determined on a gas chromatograph equipped with a sniff port by a panel of trained evaluators. The lowest concentration smelled by each panelist is recorded as the individual threshold concentration expressed in ng (absolute amount of compound delivered at the sniff port).
Under identical conditions the odor threshold concentration for […]

[3] = Light floral cologne accord, replacement of 4 parts DPG; details: 4 parts DPG of 1000 replaced by the compound
From the text: The accord above represents a light floral cologne accord, suitable for fine perfumery at a dosage of e.g. 5 weight %.
Without methyl salicylate, the accord lacks initial freshness and neutrality on the top note.
Thus an accord was obtained which compensates the effects normally achieved by the presence of methyl salicylate, thus a useful compensation of methyl salicylate is obtained.

[4] = Replacement of methyl salicylate in wintergreen flavor formulation for toothpaste; details: 20 parts methyl salicylate replaced by 0.2 parts compound and 19.8 parts PG
From the text: The formulation above is a typical wintergreen type flavor suitable for the use in toothpaste products, at a dosage of, e.g. 1.2 wt %.

[5] = Replacement of methyl salicylate in wintergreen flavor formulation for mouthwash; details: 20 parts methyl salicylate replaced by 0.2 parts compound and 19.8 parts PG
From the text: The formulation above is a typical wintergreen type flavor suitable for the use in mouthwash products, at a dosage of, e.g. 0.3 wt %.

COC(=O)c1c(O)cccc1F [methyl 2-fluoro-6-hydroxybenzoate]
Odor description [1]: Sweetness, elements of wintergreen,
odor profile compared to methyl salicylate (summary statement) [1]: very similar to methyl salicylate
sweet aspect of odor profile [1]: possessing these sweet aspect
odor threshold concentration compared to methyl salicylate and other methyl-fluoro-hydroxybenzoates (in words) [2]: surprisingly low
odor threshold concentration (relative) [2]: 1

COC(=O)c1ccccc1O [methyl 2-hydroxybenzoate, reference compound]
odor threshold concentration (relative) [2]: 22
olfactory effect on accord [3]: helps to reinforce the fresh, transparent, natural top note

COC(=O)c1cccc(F)c1O [methyl 3-fluoro-2-hydroxybenzoate, reference compound]
Odor description [1]: Medicinal note, technical
odor threshold concentration (relative) [2]: 42

COC(=O)c1ccc(F)cc1O [methyl 4-fluoro-2-hydroxybenzoate]
Odor description [1]: Wintergreen, typical methyl salicylate
odor profile compared to methyl salicylate (summary statement) [1]: very similar to methyl salicylate
sweet aspect of odor profile [1]: possessing these sweet aspect
odor threshold concentration compared to methyl salicylate and other methyl-fluoro-hydroxybenzoates (in words) [2]: surprisingly low
odor threshold concentration (relative) [2]: 4
odor threshold concentration, times lower than methyl 3-fluoro-2-hydroxybenzoate ([2]; versus methyl 3-fluoro-2-hydroxybenzoate): more than 10 times
odor threshold concentration, times lower than methyl salicylate ([2]; versus methyl salicylate): more than 5 times
flavor profile after replacement of methyl salicylate [4]: profile with very similar characteristics
flavor profile after replacement of methyl salicylate [5]: profile with very similar characteristics
olfactory effect on accord [3]: fresh and green natural effect on the top note

COC(=O)c1cc(F)ccc1O [methyl 5-fluoro-2-hydroxybenzoate, reference compound]
Odor description [1]: less sweetness, methyl salicylate character
odor threshold concentration (relative) [2]: 36
